Assay results from patent US20190284168A1, “PYRAZOLE DERIVATIES AS SGC STIMULATORS” (IRONWOOD PHARMACEUTICALS, INC., priority 2014, published 2019).
Where two headings read alike, the source gives them in different places.

Molecular target: T1, soluble guanylate cyclase (sGC) (Homo sapiens, UniProt Q02108+Q02153)
T1 construct: endogenously expressing soluble guanylate cyclase (sGC); endogenous in cells; host or cells: HEK293
T1 sequence (Q02153 1-619): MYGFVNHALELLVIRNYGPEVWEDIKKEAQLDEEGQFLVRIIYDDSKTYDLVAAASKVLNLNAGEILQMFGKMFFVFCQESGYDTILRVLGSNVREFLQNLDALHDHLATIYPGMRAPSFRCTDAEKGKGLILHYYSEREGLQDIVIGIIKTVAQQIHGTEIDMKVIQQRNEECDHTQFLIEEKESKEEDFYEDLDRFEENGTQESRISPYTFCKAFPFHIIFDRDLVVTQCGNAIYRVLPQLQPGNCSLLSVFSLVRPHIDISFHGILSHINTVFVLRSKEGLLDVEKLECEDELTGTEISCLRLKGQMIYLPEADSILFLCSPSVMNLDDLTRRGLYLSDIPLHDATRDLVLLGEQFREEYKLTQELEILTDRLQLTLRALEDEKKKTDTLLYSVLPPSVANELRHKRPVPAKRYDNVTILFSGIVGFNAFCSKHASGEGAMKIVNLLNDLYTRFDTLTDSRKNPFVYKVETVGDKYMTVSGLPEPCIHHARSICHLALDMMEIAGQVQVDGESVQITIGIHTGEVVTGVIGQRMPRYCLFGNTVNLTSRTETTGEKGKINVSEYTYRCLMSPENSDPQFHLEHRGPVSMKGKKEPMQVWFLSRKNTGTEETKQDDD
T1 sequence (Q02108 1-690): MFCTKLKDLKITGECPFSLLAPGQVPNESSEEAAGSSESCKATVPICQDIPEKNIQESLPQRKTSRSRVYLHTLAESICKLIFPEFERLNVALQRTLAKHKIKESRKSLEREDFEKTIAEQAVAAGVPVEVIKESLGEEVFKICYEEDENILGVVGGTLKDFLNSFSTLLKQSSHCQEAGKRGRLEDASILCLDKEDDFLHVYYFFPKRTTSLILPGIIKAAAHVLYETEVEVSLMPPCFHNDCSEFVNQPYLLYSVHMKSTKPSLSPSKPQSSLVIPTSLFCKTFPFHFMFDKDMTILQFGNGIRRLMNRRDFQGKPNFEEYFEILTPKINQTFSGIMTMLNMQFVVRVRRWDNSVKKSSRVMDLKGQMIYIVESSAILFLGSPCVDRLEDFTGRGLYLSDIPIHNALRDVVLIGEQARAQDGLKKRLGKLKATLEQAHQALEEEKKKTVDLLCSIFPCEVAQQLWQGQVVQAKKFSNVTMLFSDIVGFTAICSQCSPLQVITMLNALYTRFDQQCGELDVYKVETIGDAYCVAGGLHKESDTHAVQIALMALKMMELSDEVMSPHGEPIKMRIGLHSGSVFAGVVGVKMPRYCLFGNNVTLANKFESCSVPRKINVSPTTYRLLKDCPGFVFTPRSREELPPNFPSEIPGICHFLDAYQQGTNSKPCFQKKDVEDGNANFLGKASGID
Assay: sGC-HEK-cGMP assay with LC/MS detection
Format: cell-based

[1] = HEK293 whole cells, LC/MS detection of cGMP, 10 μM DETA-NONOate, 50% of high control response (30 μM Compound Y), read-out: Absolute EC50 (nM)- binned (~)

Row | EC50 [1] | Compound | EC50
1 | 100 to 1000 nM | C[C@@](CNc1nc(-c2cc(-c3ccon3)n(Cc3ccccc3F)n2)ncc1F)(NC(CO)c1ccccc1)C(F)(F)F (stereo partly drawn) [Compound 130, 2-phenyl-2-(((S)-1,1,1-trifluoro-3-((5-fluoro-2-(1-(2-fluorobenzyl)-5-(isoxazol-3-yl)-1H-pyrazol-3-yl)pyrimidin-4-yl)amino)-2-methylpropan-2-yl)amino)ethanol] | 
2 | 100 to 1000 nM | CC(=O)c1cc(-c2ncc(F)c(N[C@@H](CC(=O)O)C(C)C)n2)nn1Cc1ccccc1F [Compound 138, (S)-3-((2-(5-acetyl-1-(2-fluorobenzyl)-1H-pyrazol-3-yl)-5-fluoropyrimidin-4-yl)amino)-4-methylpentanoic acid] | 
3 | > 30000 nM | COCc1cc(-c2ncc(F)c(NCC(O)(C(N)=O)C(F)(F)F)n2)nn1Cc1ccccc1F (stereo not shown) [Compound 20] | 
4 | 100 to 1000 nM | CC(C)C(C)(N)CNc1nc(-c2cc(-c3ccon3)n(Cc3ccccc3F)n2)ncc1F (stereo not shown) [Compound 154, N1-(5-fluoro-2-(1-(2-fluorobenzyl)-5-(isoxazol-3-yl)-1H-pyrazol-3-yl)pyrimidin-4-yl)-2,3-dimethylbutane-1,2-diamine] | 
5 | 100 to 1000 nM | CC(=O)c1cc(-c2ncc(F)c(N3CC(C(=O)O)C(C)(C)C3)n2)nn1Cc1ccccc1F (stereo not shown) [Compound 136, 1-(2-(5-acetyl-1-(2-fluorobenzyl)-1H-pyrazol-3-yl)-5-fluoropyrimidin-4-yl)-4,4-dimethylpyrrolidine-3-carboxylic acid] | 
6 | 100 to 1000 nM | CC(=O)c1cc(-c2ncc(F)c(NCCCCC(=O)O)n2)nn1Cc1ccccc1F [Compound 87] | 
7 | < 100 nM | OCC(CCCC(F)(F)F)Nc1nc(-c2cc(-c3ccon3)n(Cc3ccccc3F)n2)ncc1F (stereo not shown) [Compound 127, 6,6,6-trifluoro-2-((5-fluoro-2-(1-(2-fluorobenzyl)-5-(isoxazol-3-yl)-1H-pyrazol-3-yl)pyrimidin-4-yl)amino)hexan-1-ol] | 
8 | 100 to 1000 nM | CCOC(=O)[C@H](CN(C)c1nc(-c2cc(C(C)=O)n(Cc3ccccc3F)n2)ncc1F)C(C)C [Compound 74] | 
9 | > 30000 nM | O=[N+]([O-])c1cnc(-c2cc(-c3ccon3)n(Cc3ccccc3F)n2)nc1NCCO [Compound 7] | 
10 | > 1000 nM | Nc1nc(-c2cc(-c3ccon3)n(Cc3ccccc3F)n2)nc(N)c1NS(=O)(=O)CCC(F)(F)F [Compound 19] | 
11 | > 1000 nM | CC(=O)c1cc(-c2ncc(F)c(NS(=O)(=O)c3ccccc3)n2)nn1Cc1ccccc1F [Compound 98] | 
12 | 100 to 1000 nM | CC(=O)c1cc(-c2ncc(F)c(N3CCC(C(=O)O)(c4ccccc4)CC3)n2)nn1Cc1ccccc1F [Compound 139, 1-(2-(5-acetyl-1-(2-fluorobenzyl)-1H-pyrazol-3-yl)-5-fluoropyrimidin-4-yl)-4-phenylpiperidine-4-carboxylic acid] | 
13 | > 1000 nM | CC(=O)c1cc(-c2ncc(F)c(N3CC(NC(=O)C(F)(F)F)C3)n2)nn1Cc1ccccc1F [Compound 121] | 
14 | 100 to 1000 nM | CC(=O)c1cc(-c2ncc(F)c(N(C)C)n2)nn1Cc1ccccc1F [Compound 91] | 
15 | 100 to 1000 nM | CC(=O)c1cc(-c2ncc(F)c(N3CC(C)C(C(=O)O)C3)n2)nn1Cc1ccccc1F (stereo not shown) [Compound 89] | 
16 | > 1000 nM | COC1=CC(=O)N(c2nc(-c3cc(-c4ccon4)n(Cc4ccccc4F)n3)ncc2F)C1 [Compound 147, 1-(5-fluoro-2-(1-(2-fluorobenzyl)-5-(isoxazol-3-yl)-1H-pyrazol-3-yl)pyrimidin-4-yl)-4-methoxy-1H-pyrrol-2(5H)-one] | 
17 | 100 to 1000 nM | Fc1ccccc1Cn1nc(-c2ncc(F)c(N3CCCCO3)n2)cc1-c1ccon1 [Compound 34] | 
18 | > 1000 nM | CC(C)(C(N)=O)C(=O)Nc1nc(-c2cc(-c3ccon3)n(Cc3ccccc3F)n2)ncc1F [Compound 48] | 
19 | < 100 nM | NC(=O)C(F)(F)CNc1nc(-c2cc(-c3ccon3)n(Cc3ccccc3F)n2)ncc1F [Compound 15] | 
20 | 100 to 1000 nM | CC(=O)c1cc(-c2ncc(F)c(N3CCCCC3)n2)nn1Cc1ccccc1F [Compound 93] | 
21 | 100 to 1000 nM | NC(=O)C(O)(CNc1nc(-c2cc(-c3ncco3)n(Cc3ccccc3F)n2)ncc1F)C(F)(F)F (stereo not shown) [Compound 102] | 
22 | 100 to 1000 nM | CCOC(=O)CCNc1nc(-c2cc(-c3ccon3)n(Cc3ccccc3F)n2)ncc1F [Compound 165, ethyl 3-((5-fluoro-2-(1-(2-fluorobenzyl)-5-(isoxazol-3-yl)-1H-pyrazol-3-yl)pyrimidin-4-yl)amino)propanoate] | 

Row | EC50 [1] | Compound | EC50
23 | 100 to 1000 nM | Cn1ccnc1C(O)(CNc1nc(-c2cc(-c3ccon3)n(Cc3ccccc3F)n2)ncc1F)C(F)(F)F (stereo not shown) [Compound 64] | 
24 | > 1000 nM | NCCNc1cnc(-c2cc(-c3ccon3)n(Cc3ccccc3F)n2)nc1 [Compound 9] | 
25 | > 1000 nM | C[C@H]1CCCN(c2nc(-c3cc(-c4ccon4)n(Cc4ccccc4F)n3)ncc2F)[C@H]1C(=O)OCCN1CCOCC1 [Compound 157, (2R,3S)-2-morpholinoethyl 1-(5-fluoro-2-(1-(2-fluorobenzyl)-5-(isoxazol-3-yl)-1H-pyrazol-3-yl)pyrimidin-4-yl)-3-methylpiperidine-2-carboxylate] | 
26 | > 1000 nM | Oc1cccc(F)c1Cn1nc(-c2ncc(F)c(O)n2)cc1-c1ccon1 [Compound 182] | 
27 | 100 to 1000 nM | CC1(C(=O)Nc2ccnc(-c3cc(-c4ccon4)n(Cc4ccccc4F)n3)n2)CCNC1=O (stereo not shown) [Compound 59] | 
28 | 100 to 1000 nM | O=C(OCCNc1nc(-c2cc(-c3ccon3)n(Cc3ccccc3F)n2)ncc1F)C1CCCCN1 (stereo not shown) [Compound 202] | 
29 | 100 to 1000 nM | CC(=O)c1cc(-c2ncc(F)c(N3CCC(O)C(CO)C3)n2)nn1Cc1ccccc1F (stereo not shown) [Compound 117] | 
30 | < 100 nM | CC(C)[C@H](CO)Nc1nc(-c2cc(-c3ccon3)n(Cc3ccccc3F)n2)ncc1F [Compound 148, (R)-2-((5-fluoro-2-(1-(2-fluorobenzyl)-5-(isoxazol-3-yl)-1H-pyrazol-3-yl)pyrimidin-4-yl)amino)-3-methylbutan-1-ol] | 
31 | > 1000 nM | CC(=O)c1cc(-c2ncc(F)c(N3CCNC(=O)C3)n2)nn1Cc1ccccc1F [Compound 77] | 
32 | 100 to 1000 nM | CC(=O)c1cc(-c2ncc(F)c(N3CCNC(C(F)(F)F)C3)n2)nn1Cc1ccccc1F (stereo not shown) [Compound 71] | 
33 | > 1000 nM | CC(=O)c1cc(-c2ncc(F)c(NCC(C)(O)C(N)=O)n2)nn1Cc1ccccc1F (stereo not shown) [Compound 193] | 
34 | 100 to 1000 nM | Cc1nnc(Nc2nc(-c3cc(-c4ccon4)n(Cc4ccccc4F)n3)ncc2F)o1 [Compound 14] | 
35 | 100 to 1000 nM | Fc1ccccc1Cn1nc(-c2ncc(F)c(N3CCCO3)n2)cc1-c1ccon1 [Compound 16] | 
36 | > 1000 nM | CCOC(=O)C(C)(C)C(=O)Nc1ccnc(-c2cc(-c3ccon3)n(Cc3ccccc3F)n2)n1 [Compound 66] | 
37 | 100 to 1000 nM | O=C(CCNc1nc(-c2cc(-c3ccon3)n(Cc3ccccc3F)n2)ncc1F)OCCN1CCOCC1 [Compound 162, 2-morpholinoethyl 3-((5-fluoro-2-(1-(2-fluorobenzyl)-5-(isoxazol-3-yl)-1H-pyrazol-3-yl)pyrimidin-4-yl)amino)propanoate] | 
38 | 100 to 1000 nM | C[C@](CNc1nc(-c2cc(-c3ccon3)n(Cc3ccccc3F)n2)ncc1F)(NC(CO)c1ccccc1)C(F)(F)F (stereo partly drawn) [Compound 131, 2-phenyl-2-(((R)-1,1,1-trifluoro-3-((5-fluoro-2-(1-(2-fluorobenzyl)-5-(isoxazol-3-yl)-1H-pyrazol-3-yl)pyrimidin-4-yl)amino)-2-methylpropan-2-yl)amino)ethanol] | 
39 | 100 to 1000 nM | CC(=O)c1cc(-c2ncc(F)c(N3CCC(S(N)(=O)=O)CC3)n2)nn1Cc1ccccc1F [Compound 88] | 
40 | > 30000 nM | CC(=O)c1cc(-c2ncc(F)c(Nc3nnc(C(F)(F)F)s3)n2)nn1Cc1ccccc1F [Compound 126] | 
41 | < 100 nM | CCCC[C@H](CO)Nc1nc(-c2cc(-c3ccon3)n(Cc3ccccc3F)n2)ncc1F [Compound 151, (R)-2-((5-fluoro-2-(1-(2-fluorobenzyl)-5-(isoxazol-3-yl)-1H-pyrazol-3-yl)pyrimidin-4-yl)amino)hexan-1-ol] | 
42 | 100 to 1000 nM | CC(=O)c1cc(-c2ncc(F)c(NS(=O)(=O)CCC(F)(F)F)n2)nn1Cc1ccccc1F [Compound 96] | 
43 |  | Oc1cc(CNc2nc(-c3cc(-c4ccon4)n(Cc4ccccc4F)n3)ncc2F)on1 [Compound 28] | < 100 nM
